Reference: the supplement of paper PMC10307832

Tests used:
Assay in all cases: relative viability (nuclei count vs DMSO), 5 days (fraction); higher = more cells survive
GW-2580 + OSI-027 = compound: COC1=CC=C(C=C1)COC2=C(C=C(C=C2)CC3=CN=C(N=C3N)N)OC [GW-2580] + COc1cccc2cc(-c3nc([C@H]4CC[C@H](C(=O)O)CC4)n4ncnc(N)c34)[nH]c12 [OSI-027] (partner 0.5 µM)
In short: (§1)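 Relative viability is defined as nuclei in treated wells over nuclei in vehicle wells. Duplicate plates were run and medians reported. Lung cancer cell lines in 1536-well plates were dosed by pin tool one day after seeding, with one drug or with a fixed anchor-drug dose plus five library-drug doses (not always all listed) in √10 steps, and nuclei were counted after 5 days.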

GW-2580 + Alpelisib = compound: COC1=CC=C(C=C1)COC2=C(C=C(C=C2)CC3=CN=C(N=C3N)N)OC [GW-2580] + Cc1nc(NC(=O)N2CCC[C@H]2C(N)=O)sc1-c1ccnc(C(C)(C)C(F)(F)F)c1 [Alpelisib] (partner 2 µM)
In short: as §1

Fedratinib + Palbociclib = compound: Cc1cnc(Nc2ccc(OCCN3CCCC3)cc2)nc1Nc1cccc(S(=O)(=O)NC(C)(C)C)c1 [Fedratinib] + CC(=O)c1c(C)c2cnc(Nc3ccc(N4CCNCC4)cn3)nc2n(C2CCCC2)c1=O [Palbociclib] (partner 0.5 µM)
In short: as §1

Fedratinib + Bortezomib = compound: Cc1cnc(Nc2ccc(OCCN3CCCC3)cc2)nc1Nc1cccc(S(=O)(=O)NC(C)(C)C)c1 [Fedratinib] + CC(C)C[C@H](NC(=O)[C@H](Cc1ccccc1)NC(=O)c1cnccn1)B(O)O [Bortezomib] (partner 0.002 µM)
In short: as §1

Fedratinib + Lapatinib = compound: Cc1cnc(Nc2ccc(OCCN3CCCC3)cc2)nc1Nc1cccc(S(=O)(=O)NC(C)(C)C)c1 [Fedratinib] + CS(=O)(=O)CCNCc1ccc(-c2ccc3ncnc(Nc4ccc(OCc5cccc(F)c5)c(Cl)c4)c3c2)o1 [Lapatinib] (partner 2 µM)
In short: as §1

Fedratinib + AZD7762 = compound: Cc1cnc(Nc2ccc(OCCN3CCCC3)cc2)nc1Nc1cccc(S(=O)(=O)NC(C)(C)C)c1 [Fedratinib] + NC(=O)Nc1cc(-c2cccc(F)c2)sc1C(=O)N[C@H]1CCCNC1 [AZD7762] (partner 0.2 µM)
In short: as §1

Row | Cell Line | relative viability (GW-2580 + OSI-027; first compound 0.08 µM) | relative viability (GW-2580 + OSI-027; first compound 0.8 µM) | relative viability (GW-2580 + OSI-027; first compound 2.53 µM) | relative viability (GW-2580 + OSI-027; first compound 8 µM) | relative viability (GW-2580 + Alpelisib; first compound 0.08 µM) | relative viability (GW-2580 + Alpelisib; first compound 0.8 µM) | relative viability (GW-2580 + Alpelisib; first compound 2.53 µM) | relative viability (GW-2580 + Alpelisib; first compound 8 µM) | relative viability (Fedratinib + Palbociclib; first compound 0.1 µM) | relative viability (Fedratinib + Palbociclib; first compound 0.3162 µM) | relative viability (Fedratinib + Palbociclib; first compound 1 µM) | relative viability (Fedratinib + Bortezomib; first compound 0.1 µM) | relative viability (Fedratinib + Bortezomib; first compound 0.3162 µM) | relative viability (Fedratinib + Bortezomib; first compound 1 µM) | relative viability (Fedratinib + Lapatinib; first compound 0.1 µM) | relative viability (Fedratinib + Lapatinib; first compound 1 µM) | relative viability (Fedratinib + AZD7762; first compound 0.1 µM) | relative viability (Fedratinib + AZD7762; first compound 0.3162 µM) | relative viability (Fedratinib + AZD7762; first compound 1 µM) | relative viability (Fedratinib + Lapatinib; first compound 0.3162 µM)
1 | HCC-78 | 0.362 | 0.434 | 0.337 | 0.337 | 0.368 | 0.363 | 0.28 | 0.304 | 0.47 | 0.443 | 0.476 | 0.439 | 0.535 | 0.511 | 0.929 | 0.609 | 0.582 | 0.526 | 0.497 | 
2 | LOU-NH91 | 0.706 | 0.808 | 0.678 | 0.721 | 0.677 | 0.756 | 0.635 | 0.688 | 0.573 | 0.544 | 0.543 | 0.449 | 0.526 | 0.468 | 0.732 | 0.638 | 0.594 | 0.857 | 0.658 | 0.798
3 | NCI-H3122 | 1.28 | 1.24 | 1.19 | 0.895 | 0.85 | 0.878 | 0.671 | 0.758 | 0.199 | 0.184 | 0.159 | 0.991 | 0.981 | 0.485 | 1.04 | 0.555 | 1.07 | 1.02 | 0.912 | 0.966
4 | HCC-827 | 0.848 | 0.906 | 0.278 | 0.687 | 1.15 | 0.923 | 0.902 | 0.915 | 0.454 | 0.485 | 0.475 | 1.09 | 1.03 | 1.03 | 0.187 | 0.22 | 0.161 | 0.205 | 0.219 | 0.181
5 | NCI-H1975 | 0.952 | 0.829 | 0.709 | 0.58 | 0.693 | 0.778 | 0.647 | 0.596 | 0.644 | 0.304 | 0.413 | 0.388 | 0.405 | 0.163 | 1.02 | 0.163 | 0.562 | 0.676 | 0.566 | 0.922
6 | NCI-H1651 | 0.804 | 0.753 | 0.748 | 0.896 | 1.26 | 1.17 | 0.954 | 0.934 | 0.49 | 0.485 | 0.508 | 0.965 | 0.951 | 0.871 | 0.817 | 0.118 | 0.502 | 0.404 | 0.435 | 0.813
7 | LCLC-97TM1 | 0.556 | 0.614 | 0.624 | 0.426 | 0.233 |  | 0.189 | 0.226 | 0.215 | 0.235 | 0.183 | 0.636 | 0.527 | 0.228 | 1.14 | 0.938 | 0.342 | 0.154 | 0.21 | 0.711
8 | NCI-H727 | 0.595 | 0.761 | 0.629 | 0.575 | 0.664 | 0.594 | 0.615 | 0.453 | 0.483 | 0.652 | 0.624 | 0.655 | 0.733 | 0.178 | 0.783 | 0.211 | 0.639 | 0.465 | 0.576 | 0.846
9 | NCI-H1355 | 0.378 | 0.466 | 0.37 | 0.35 | 0.816 | 0.937 | 0.694 | 0.883 | 0.412 | 0.396 | 0.385 | 1.21 | 1.24 | 1.09 | 0.734 | 0.962 | 0.646 | 0.707 | 0.612 | 1.04
10 | HOP-62 | 0.905 | 0.801 | 0.847 | 0.985 | 0.914 | 1.01 | 0.694 | 1.07 | 0.437 | 0.426 | 0.393 | 1.01 | 0.92 | 0.785 | 0.969 | 0.904 | 0.734 | 0.566 | 0.555 | 0.88
11 | NCI-H2085 | 0.985 | 0.86 | 0.653 | 0.886 | 1.1 | 0.924 | 0.924 | 0.792 | 0.447 | 0.483 | 0.423 | 1.04 | 1.09 | 0.416 | 0.709 | 0.538 | 0.952 | 0.925 | 0.928 | 0.766
